Publication PMC12586182 (Frontiers in Oncology, 2025)
pIC50: −log10 of the molar value. Like-named read-outs stand apart in the source and are kept apart here.

Assays:
MLK1 = MLK1 (Homo sapiens, UniProt P80192); test: Radiometric kinase assay with 32P-labeled ATP (Eurofins)
Procedure: (§2) Inhibition of MLK1 and B-RAF at K M,ATP was determined in a radiometric assay using ^32P-labeled ATP at Eurofins Cerep SA (Celle-Lévescault, France). Interaction with SIK3 was assessed in a competition binding assay at Eurofins DiscoverX LLC (San Diego, CA, USA).

SIK3 [1] = target: T1, SIK3 (Homo sapiens, UniProt Q9Y2K2); test: Kinase enzyme activity assay at 1 mmol/L ATP (Carna)
Procedure: (§3) Inhibition of MLK1 and B-RAF at K M,ATP was determined in a radiometric assay using ^32P-labeled ATP at Eurofins Cerep SA (Celle-Lévescault, France).

MEK1 [2] = target: T2, MEK1 (Homo sapiens, UniProt Q02750); parameters: method as in Reiff et al. [15]; conditions: 1 mmol/L ATP; ref Reiff et al. [15]; read-out: IC50 in an enzyme assay for MEK1; cited from earlier work
T2 construct: purchased Carna Biosciences, Inc. 07–41

B-RAF = B-RAF (Homo sapiens, UniProt P15056); test: Radiometric kinase assay with 32P-labeled ATP (Eurofins), cascade assay
Procedure: as §3

RD-ES = test: Cell viability assay (ATPlite); type: cell-based; conditions: Homo sapiens; RD-ES cell line, 72 hours incubation
Procedure: (§1) Intracellular ATP content was used as an indirect readout of cell number using the ATPlite 1Step bioluminescence assay (Revvity, Groningen, the Netherlands). Cells were seeded in 384-well plates at an optimized density to ensure unrestricted growth and maximal signal at the end of the experiment. After 24 hours of incubation, the starting cell number was determined by adding ATPlite to each well of a control plate and recording luminescence on an Envision multimode reader (Revvity, Waltham, MA, USA) ([4]). Compounds were diluted in DMSO in √10-fold steps from 10 mmol/L stocks to obtain 9-point dilution series. After further 31.6-fold dilution in 20 mmol/L HEPES (pH 7.4), the dilution series were added in duplicate to the cells in the 384-well plates to determine the effect of the compounds on cell viability. Vehicle-treated controls were included to determine maximal cell proliferation. The final DMSO concentration was 0.4% (v/v) in all wells. After incubation for an additional 72 hours, the ATP content was measured in each well using ATPlite. The luminescent signal in inhibitor-treated wells was normalized to vehicle-treated control wells to determine the percentage viability at each concentration. Cell doublings were determined by relating the cell number of vehicle-treated controls to the starting cell number for each cell line. The viability assay of a cell line was repeated when the cell doubling deviated > 2-fold from the historic doubling as determined by multiple independent experiments. The quality of the complete assay was determined by a parallel test with doxorubicin on two cell lines. IC50 values were calculated by fitting a four-parameter logistic model to the percentage viability values using IDBS XLfit5 (IDBS, Guildford, United Kingdom). All curves were visually inspected and submitted to an F-test as implemented in IDBS XLfit5. Curves with an F-value above 1.5 were invalidated and IC50 values were maximized at the highest concentration.

CTV-1 = test: Cell viability assay (ATPlite); type: cell-based; conditions: Homo sapiens; CTV-1 cell line, 72 hours incubation
Procedure: as §1

SW948 = test: Cell viability assay (ATPlite); type: cell-based; conditions: Homo sapiens; SW948 cell line, 72 hours incubation
Procedure: as §1

HCC827 = test: Cell viability assay (ATPlite); type: cell-based; conditions: Homo sapiens; HCC827 cell line, 72 hours incubation
Procedure: as §1

ES-2 = test: Cell viability assay (ATPlite); type: cell-based; conditions: Homo sapiens; ES-2 cell line, 72 hours incubation
Procedure: as §1

U-118MG = test: Cell viability assay (ATPlite); type: cell-based; conditions: Homo sapiens; U-118MG cell line, 72 hours incubation
Procedure: as §1

NCI-H460 = test: Cell viability assay (ATPlite); type: cell-based; conditions: Homo sapiens; NCI-H460 cell line, 72 hours incubation
Procedure: as §1

COLO 205 = test: Cell viability assay (ATPlite); type: cell-based; conditions: Homo sapiens; COLO 205 cell line, 72 hours incubation
Procedure: as §1

Rh30 = test: Cell viability assay (ATPlite); type: cell-based; conditions: Homo sapiens; Rh30 cell line, 72 hours incubation
Procedure: as §1

A-673 = test: Cell viability assay (ATPlite); type: cell-based; conditions: Homo sapiens, A673; A-673 cell line, 72 hours incubation
Procedure: as §1

Daoy = test: Cell viability assay (ATPlite); type: cell-based; conditions: Homo sapiens; Daoy cell line, 72 hours incubation
Procedure: as §1

SU-DHL-1 = test: Cell viability assay (ATPlite); type: cell-based; conditions: Homo sapiens; SU-DHL-1 cell line, 72 hours incubation
Procedure: as §1

NCI-H716 = test: Cell viability assay (ATPlite); type: cell-based; conditions: Homo sapiens; NCI-H716 cell line, 72 hours incubation
Procedure: as §1

SK-N-FI = test: Cell viability assay (ATPlite); type: cell-based; conditions: Homo sapiens; SK-N-FI cell line, 72 hours incubation
Procedure: as §1

MIA PaCa-2 = test: Cell viability assay (ATPlite); type: cell-based; conditions: Homo sapiens; MIA PaCa-2 cell line, 72 hours incubation
Procedure: as §1

HEC-6 = test: Cell viability assay (ATPlite); type: cell-based; conditions: Homo sapiens; HEC-6 cell line, 72 hours incubation
Procedure: as §1

RL95-2 = test: Cell viability assay (ATPlite); type: cell-based; conditions: Homo sapiens; RL95-2 cell line, 72 hours incubation
Procedure: as §1

SHP-77 = test: Cell viability assay (ATPlite); type: cell-based; conditions: Homo sapiens, SHP77; SHP-77 cell line, 72 hours incubation
Procedure: as §1

A-375 = test: Cell viability assay (ATPlite); type: cell-based; conditions: Homo sapiens; A-375 cell line, 72 hours incubation
Procedure: as §1

RD = test: Cell viability assay (ATPlite); type: cell-based; conditions: Homo sapiens; RD cell line, 72 hours incubation
Procedure: as §1

MCF-7 = test: Cell viability assay (ATPlite); type: cell-based; conditions: Homo sapiens, MCF7; MCF-7 cell line, 72 hours incubation
Procedure: as §1

SW626 = test: Cell viability assay (ATPlite); type: cell-based; conditions: Homo sapiens; SW626 cell line, 72 hours incubation
Procedure: as §1

A-204 = test: Cell viability assay (ATPlite); type: cell-based; conditions: Homo sapiens, A204; A-204 cell line, 72 hours incubation
Procedure: as §1

MEK1 [3] = target: T2, MEK1; test: Kinase enzyme activity assay (ELISA, in-house); type: biochemical
SIK3 [4] = target: T1, SIK3; test: Competition binding assay (Eurofins DiscoverX)
Procedure: as §2

T2 sequence (Q02750 whole entry): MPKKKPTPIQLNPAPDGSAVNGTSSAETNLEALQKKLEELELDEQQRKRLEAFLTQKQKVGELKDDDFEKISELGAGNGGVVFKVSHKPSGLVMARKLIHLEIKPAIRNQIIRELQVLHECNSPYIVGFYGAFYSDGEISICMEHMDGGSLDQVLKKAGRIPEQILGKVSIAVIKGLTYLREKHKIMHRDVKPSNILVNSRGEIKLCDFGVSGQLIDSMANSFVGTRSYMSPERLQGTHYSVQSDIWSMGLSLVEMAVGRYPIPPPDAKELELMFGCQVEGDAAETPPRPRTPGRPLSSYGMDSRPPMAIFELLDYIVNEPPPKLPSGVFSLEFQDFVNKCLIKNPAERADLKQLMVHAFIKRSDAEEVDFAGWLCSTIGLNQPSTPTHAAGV
T1 sequence (Q9Y2K2 whole entry): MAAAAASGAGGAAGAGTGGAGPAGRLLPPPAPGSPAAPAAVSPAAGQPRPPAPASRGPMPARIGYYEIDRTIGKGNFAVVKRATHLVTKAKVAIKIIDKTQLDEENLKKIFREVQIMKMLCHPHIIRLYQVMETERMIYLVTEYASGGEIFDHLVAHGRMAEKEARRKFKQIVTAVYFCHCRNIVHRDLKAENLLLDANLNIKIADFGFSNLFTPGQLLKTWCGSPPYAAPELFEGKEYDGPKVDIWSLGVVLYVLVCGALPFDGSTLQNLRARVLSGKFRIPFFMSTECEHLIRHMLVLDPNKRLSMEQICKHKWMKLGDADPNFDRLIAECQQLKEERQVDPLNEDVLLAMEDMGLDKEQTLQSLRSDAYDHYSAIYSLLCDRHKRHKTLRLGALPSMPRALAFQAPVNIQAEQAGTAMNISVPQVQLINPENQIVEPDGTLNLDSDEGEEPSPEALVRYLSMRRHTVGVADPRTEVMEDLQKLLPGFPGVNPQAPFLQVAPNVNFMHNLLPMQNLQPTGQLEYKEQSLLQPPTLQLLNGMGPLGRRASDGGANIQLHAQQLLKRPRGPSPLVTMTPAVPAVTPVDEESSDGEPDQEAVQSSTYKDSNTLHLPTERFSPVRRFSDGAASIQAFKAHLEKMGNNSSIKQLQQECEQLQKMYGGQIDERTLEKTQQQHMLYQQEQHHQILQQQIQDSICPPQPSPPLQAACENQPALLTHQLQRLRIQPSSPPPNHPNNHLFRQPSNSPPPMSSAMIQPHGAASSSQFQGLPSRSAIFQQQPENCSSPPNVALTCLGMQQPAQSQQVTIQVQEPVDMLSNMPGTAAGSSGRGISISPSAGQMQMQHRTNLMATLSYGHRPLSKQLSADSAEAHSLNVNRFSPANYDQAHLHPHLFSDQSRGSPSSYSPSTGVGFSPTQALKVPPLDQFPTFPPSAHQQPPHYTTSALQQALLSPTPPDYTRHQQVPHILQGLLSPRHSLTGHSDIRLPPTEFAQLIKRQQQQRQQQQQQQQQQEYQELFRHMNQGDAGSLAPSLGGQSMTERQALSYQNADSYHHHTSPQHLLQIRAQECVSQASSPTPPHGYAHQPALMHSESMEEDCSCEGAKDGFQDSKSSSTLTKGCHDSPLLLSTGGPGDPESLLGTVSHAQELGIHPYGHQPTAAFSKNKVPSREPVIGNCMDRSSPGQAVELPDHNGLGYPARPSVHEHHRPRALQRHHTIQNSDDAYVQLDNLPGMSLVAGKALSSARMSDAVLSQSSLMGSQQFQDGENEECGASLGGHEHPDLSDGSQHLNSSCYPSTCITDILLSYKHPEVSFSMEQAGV
MLK1, sequence (P80192 whole entry): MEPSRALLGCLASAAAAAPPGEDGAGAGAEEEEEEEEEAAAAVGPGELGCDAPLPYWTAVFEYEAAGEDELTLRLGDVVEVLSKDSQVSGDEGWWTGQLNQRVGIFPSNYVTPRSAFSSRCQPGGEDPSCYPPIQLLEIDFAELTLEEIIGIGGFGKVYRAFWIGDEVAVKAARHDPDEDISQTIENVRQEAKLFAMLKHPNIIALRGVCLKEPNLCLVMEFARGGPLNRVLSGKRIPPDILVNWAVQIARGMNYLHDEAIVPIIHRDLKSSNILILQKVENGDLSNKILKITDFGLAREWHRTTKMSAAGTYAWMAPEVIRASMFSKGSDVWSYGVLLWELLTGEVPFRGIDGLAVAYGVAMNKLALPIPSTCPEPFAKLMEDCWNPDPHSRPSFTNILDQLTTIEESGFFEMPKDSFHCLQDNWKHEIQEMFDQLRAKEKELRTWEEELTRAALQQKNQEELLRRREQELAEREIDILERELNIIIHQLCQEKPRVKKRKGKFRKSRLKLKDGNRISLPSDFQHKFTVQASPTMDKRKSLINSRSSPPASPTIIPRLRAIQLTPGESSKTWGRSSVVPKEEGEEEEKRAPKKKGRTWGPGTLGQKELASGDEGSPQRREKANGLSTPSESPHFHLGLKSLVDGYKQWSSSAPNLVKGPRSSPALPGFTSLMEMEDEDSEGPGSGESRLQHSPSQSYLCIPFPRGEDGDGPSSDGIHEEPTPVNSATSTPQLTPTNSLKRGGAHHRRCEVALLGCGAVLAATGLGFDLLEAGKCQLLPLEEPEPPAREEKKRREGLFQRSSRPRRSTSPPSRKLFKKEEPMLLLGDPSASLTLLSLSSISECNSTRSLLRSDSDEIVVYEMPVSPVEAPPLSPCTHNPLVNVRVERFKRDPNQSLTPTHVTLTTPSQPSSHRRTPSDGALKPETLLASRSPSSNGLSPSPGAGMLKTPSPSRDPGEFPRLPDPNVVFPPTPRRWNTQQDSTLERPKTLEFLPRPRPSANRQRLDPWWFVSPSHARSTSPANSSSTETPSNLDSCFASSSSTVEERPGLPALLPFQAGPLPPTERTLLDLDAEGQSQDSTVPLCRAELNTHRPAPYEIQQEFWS
B-RAF, sequence (P15056 2-766): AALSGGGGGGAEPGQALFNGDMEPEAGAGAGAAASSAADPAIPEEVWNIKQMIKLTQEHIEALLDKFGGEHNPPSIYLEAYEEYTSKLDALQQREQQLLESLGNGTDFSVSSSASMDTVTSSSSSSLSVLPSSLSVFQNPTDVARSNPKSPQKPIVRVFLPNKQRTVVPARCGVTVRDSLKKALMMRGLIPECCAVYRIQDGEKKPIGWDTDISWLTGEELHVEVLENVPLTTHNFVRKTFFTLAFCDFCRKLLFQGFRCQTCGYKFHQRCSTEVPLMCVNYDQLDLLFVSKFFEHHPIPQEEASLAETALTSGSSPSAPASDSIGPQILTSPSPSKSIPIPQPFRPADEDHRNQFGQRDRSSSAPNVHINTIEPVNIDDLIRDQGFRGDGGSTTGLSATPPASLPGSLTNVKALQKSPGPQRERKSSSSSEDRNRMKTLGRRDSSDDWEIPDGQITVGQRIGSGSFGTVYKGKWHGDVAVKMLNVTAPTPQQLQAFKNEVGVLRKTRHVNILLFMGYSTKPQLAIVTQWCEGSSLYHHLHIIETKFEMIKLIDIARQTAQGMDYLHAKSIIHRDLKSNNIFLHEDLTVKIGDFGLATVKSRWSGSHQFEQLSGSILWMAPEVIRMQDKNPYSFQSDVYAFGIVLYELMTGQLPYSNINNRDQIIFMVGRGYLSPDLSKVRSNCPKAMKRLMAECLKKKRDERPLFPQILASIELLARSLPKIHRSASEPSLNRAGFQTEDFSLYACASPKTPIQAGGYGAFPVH
B-RAF, sequence (Q02750 whole entry, further chain): as the sequence (Q02750 whole entry) above
B-RAF, sequence (P28482 2-360, further chain): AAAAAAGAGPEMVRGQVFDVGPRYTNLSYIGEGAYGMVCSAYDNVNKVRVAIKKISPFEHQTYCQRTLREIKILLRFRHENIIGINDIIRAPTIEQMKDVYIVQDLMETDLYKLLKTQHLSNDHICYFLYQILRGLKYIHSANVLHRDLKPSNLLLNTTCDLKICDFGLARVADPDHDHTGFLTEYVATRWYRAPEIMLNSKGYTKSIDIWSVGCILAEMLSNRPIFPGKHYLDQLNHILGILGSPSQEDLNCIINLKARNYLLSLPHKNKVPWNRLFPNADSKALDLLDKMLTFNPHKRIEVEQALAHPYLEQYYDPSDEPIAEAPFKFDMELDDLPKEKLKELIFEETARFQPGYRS

O=C(c1ccc(Oc2ccccc2)cc1Cl)c1c[nH]c2ncnc(N[C@@H]3CC[C@@H](CO)OC3)c12 [nemtabrutinib]
pIC50 (MLK1): 5.31 | Inhibition of MLK1 (MLK1): did not inhibit | pIC50 (SIK3 [1]): 5.03 | pIC50 (MEK1 [2]): 6.22 | pIC50 (B-RAF): 7.14 | pIC50 (RD-ES): 5.38 | pIC50 (CTV-1): 6.15 | pIC50 (SW948): 5.45 | pIC50 (HCC827): 5.33 | pIC50 (ES-2): 6.03 | pIC50 (U-118MG): 4.89 | pIC50 (NCI-H460): 5.24 | pIC50 (COLO 205): 6.18 | pIC50 (Rh30): 5.26 | pIC50 (A-673): 5.44 | pIC50 (Daoy): 5.14 | pIC50 (SU-DHL-1): 5.21 | pIC50 (NCI-H716): 5.83 | pIC50 (SK-N-FI): 5.40 | pIC50 (MIA PaCa-2): 5.56 | pIC50 (HEC-6): 4.65 | pIC50 (RL95-2): 5.93 | pIC50 (SHP-77): 4.84 | pIC50 (A-375): 6.39 | pIC50 (RD): 5.46 | pIC50 (MCF-7): 4.92 | pIC50 (SW626): 5.51 | pIC50 (A-204): 5.17 | pIC50 (MEK1 [3]; 1 mmol/L ATP, read-out: IC50, MEK1): 6.34 | pIC50 (MEK1 [3]; IC50, MEK1): ~8.05 | pIC50 (MEK1 [3]; K M,bin ATP (10 µmol/L ATP), read-out: IC50, MEK1): 8.07 | pIC50 (SIK3 [4]): < 5.00 | Binding to SIK3 (SIK3 [4]; competition binding assay): No binding
